Laboratory results reported in patent US9458153B2, “Dihydroquinolizinones for the treatment and prophylaxis of hepatitis B virus infection” (Hoffmann-La Roche Inc., priority 2014, dated 2016).

System: HBsAg
Test: HBsAg assay (chemiluminescence immunoassay of secreted HBsAg in HepG2.2.15 culture supernatant)
Assay type: cell-based, HBV
Conditions: HepG2.2.15 cells, CLIA kit
Protocol: HepG2.2.15 cells (Acs et al. Proc Natl Acad Sci USA, 84, (1987), 4641-4), a constitutively HBV-expressing cell line were cultured in DMEM+Glutamax-I medium (Invitrogen, Carlsbad, Calif., USA), supplemented with 10% fetal bovine serum (Invitrogen) and G418 (Invitrogen) at a final concentration of 200 mg/L and maintained in 5% CO2 at 37° C.
HepG2.2.15 cells were seeded in duplicate into white, 96-well plates at 1.5×10^4 cells/well. The cells were treated with a three-fold serial dilution series of the compounds in DMSO. The final DMSO concentration in all wells was 1% and DMSO was used as no drug control.
The HBsAg chemiluminescence immunoassay (CLIA) kit (Autobio Diagnostics Co., Zhengzhou, China, Catalog number: CL0310-2) was used to measure the levels of secreted HBV antigens semi-quantitatively. For the detection 50 μL/well culture supernatant was used and HBsAg was quantified using HBsAg chemiluminescence immunoassay (CLIA) kit (Autobio Diagnostics Co., Zhengzhou, China, Catalog number: CL0310-2), 50 μL of the supernatant was transferred to the CLIA assay plate and 50 μL of enzyme conjugate reagent was added into each well. The plates were sealed and gently agitated for 1 hour at room temperature. The supernatant-enzyme-mixture was discarded and wells were washed 6 times with 300 μL of PBS. The residual liquid was removed by plating the CLIA plate right side down on absorbent tissue paper. 25 μL of substrates A and B were added to each well. Luminance was measured using a luminometer (Mithras LB 940 Multimode Microplate Reader) after 10 minutes incubation. Dose-response curves were generated and the IC50 value was extrapolated by using the E-WorkBook Suite (ID Business Solutions Ltd., Guildford, UK).
The compounds of the present invention were tested for their capacity to inhibit HBsAg as described herein.

[1] = Hepatitis B virus, HepG2.2.15, HBsAg secretion reduced by 50% vs no drug control
[2] = HBsAg secretion reduced by 50% vs no drug control

Row | SMILES | IC50 [1] | IC50 [2]
1 | CC[C@@H]1[C@@H](C)c2cc(OCCOC)c(Cl)cc2-c2cc(=O)c(C(=O)O)cn21 (relative stereo) [Example 212A, (6R*, 7S*)-10-chloro-6-ethyl-9-(2-methoxyethoxy)-7-methyl-2-oxo-6,7-dihydrobenzo[a]quinolizine-3-carboxylic acid] | 330 nM | –
2 | CC[C@@H]1[C@H](C)c2cc(OCCOC)c(Cl)cc2-c2cc(=O)c(C(=O)O)cn21 (relative stereo) [Example 212B, (6R*,7R*)-10-chloro-6-ethyl-9-(2-methoxyethoxy)-7-methyl-2-oxo-6,7-dihydrobenzo[a]quinolizine-3-carboxylic acid] | 29 nM | –
3 | CCC1Cc2cc(OCc3ccccc3)c(OC)cc2-c2cc(=O)c(C(=O)O)cn21 (single isomer, unassigned; (+)) [Example 9, (+)-9-benzyloxy-6-ethyl-10-methoxy-2-oxo-6,7-dihydrobenzo[a]quinolizine-3-carboxylic acid] | – | 15 nM
4 | CCC1Cc2cc(OCC(C)(C)CO)c(OC)cc2-c2cc(=O)c(C(=O)O)cn21 (single isomer, unassigned; (+)) [Example 23, (+)-6-ethyl-9-(3-hydroxy-2,2-dimethyl-propoxy)-10-methoxy-2-oxo-6,7-dihydrobenzo[a]quinolizine-3-carboxylic acid] | – | 12 nM
5 | CCC1Cc2cc(OCCOC)c(OC)cc2-c2cc(=O)c(C(=O)O)cn21 (single isomer, unassigned; (+)) [Example 28, (+)-6-ethyl-10-methoxy-9-(2-methoxyethoxy)-2-oxo-6,7-dihydrobenzo[a]quinolizine-3-carboxylic acid] | – | 29 nM
6 | CCC1Cc2cc(OCC3CC3)c(OC)cc2-c2cc(=O)c(C(=O)O)cn21 (single isomer, unassigned; (+)) [Example 31, (+)-9-(cyclopropylmethoxy)-6-ethyl-10-methoxy-2-oxo-6,7-dihydrobenzo[a]quinolizine-3-carboxylic acid] | – | 9 nM
7 | CCC1Cc2cc(OCC(C)C)c(OC)cc2-c2cc(=O)c(C(=O)O)cn21 (single isomer, unassigned; (+)) [Example 34, (+)-6-ethyl-9-isobutoxy-10-methoxy-2-oxo-6,7-dihydrobenzo[a]quinolizine-3-carboxylic acid] | – | 4 nM
8 | CCOc1cc2c(cc1OC)-c1cc(=O)c(C(=O)O)cn1C(CC)C2 (single isomer, unassigned; (+)) [Example 37, (+)-9-ethoxy-6-ethyl-10-methoxy-2-oxo-6,7-dihydrobenzo[a]quinolizine-3-carboxylic acid] | – | 8 nM
9 | CCC1Cc2cc(OCCCOC)c(OC)cc2-c2cc(=O)c(C(=O)O)cn21 (single isomer, unassigned; (+)) [Example 40, (+)-6-ethyl-10-methoxy-9-(3-methoxypropoxy)-2-oxo-6,7-dihydrobenzo[a]quinolizine-3-carboxylic acid] | – | 13 nM
10 | CCOCCOc1cc2c(cc1OC)-c1cc(=O)c(C(=O)O)cn1C(CC)C2 (single isomer, unassigned; (+)) [Example 43, (+)-9-(2-ethoxyethoxy)-6-ethyl-10-methoxy-2-oxo-6,7-dihydrobenzo[a]quinolizine-3-carboxylic acid] | – | 46 nM
11 | CCC1Cc2cc(OCC(F)F)c(OC)cc2-c2cc(=O)c(C(=O)O)cn21 (single isomer, unassigned; (+)) [Example 46, (+)-9-(2,2-difluoroethoxy)-6-ethyl-10-methoxy-2-oxo-6,7-dihydrobenzo[a]quinolizine-3-carboxylic acid] | – | 44 nM
12 | CCC1Cc2cc(OCC3CCOCC3)c(OC)cc2-c2cc(=O)c(C(=O)O)cn21 (single isomer, unassigned; (+)) [Example 49, (+)-6-ethyl-10-methoxy-2-oxo-9-(tetrahydropyran-4-ylmethoxy)-6,7-dihydrobenzo[a]quinolizine-3-carboxylic acid] | – | 15 nM
13 | COc1cc2c(cc1OC)-c1cc(=O)c(C(=O)O)cn1C(C)C2 (single isomer, unassigned; (+)) [Example 67, (+)-9,10-dimethoxy-6-methyl-2-oxo-6,7-dihydrobenzo[a]quinolizine-3-carboxylic acid] | – | 380 nM
14 | CCC1Cc2cc(OC)c(C3CC3)cc2-c2cc(=O)c(C(=O)O)cn21 (single isomer, unassigned; (+)) [Example 90, (+)-10-cyclopropyl-6-ethyl-9-methoxy-2-oxo-6,7-dihydrobenzo[a]quinolizine-3-carboxylic acid] | – | 10 nM
15 | COc1cc2c(cc1OC)-c1cc(=O)c(C(=O)O)cn1C(CC(C)C)C2 (single isomer, unassigned; (+)) [Example 102, (+)-6-isobutyl-9,10-dimethoxy-2-oxo-6,7-dihydrobenzo[a]quinolizine-3-carboxylic acid] | – | 42 nM
16 | COCCOc1cc2c(cc1Cl)-c1cc(=O)c(C(=O)O)cn1C(CC(C)C)C2 (single isomer, unassigned; (+)) [Example 105, (+)-10-chloro-6-isobutyl-9-(2-methoxyethoxy)-2-oxo-6,7-dihydrobenzo[a]quinolizine-3-carboxylic acid] | – | 16 nM
17 | CCC1Cc2cc(OCc3ccccc3)c(C)cc2-c2cc(=O)c(C(=O)O)cn21 (single isomer, unassigned; (+)) [Example 116, (+)-9-benzyloxy-6-ethyl-10-methyl-2-oxo-6,7-dihydrobenzo[a]quinolizine-3-carboxylic acid] | – | 33 nM
18 | CCOc1cc2c(cc1Cl)-c1cc(=O)c(C(=O)O)cn1C(CC)C2 (single isomer, unassigned; (+)) [Example 118, (+)-10-chloro-9-ethoxy-6-ethyl-2-oxo-6,7-dihydrobenzo[a]quinolizine-3-carboxylic acid] | – | 4 nM
19 | COc1cc2c(cc1OCC(F)(F)F)CC(C(C)C)n1cc(C(=O)O)c(=O)cc1-2 (single isomer, unassigned; (+)) [Example 127, (+)-6-isopropyl-10-methoxy-2-oxo-9-(2,2,2-trifluoroethoxy)-6,7-dihydrobenzo[a]quinolizine-3-carboxylic acid] | – | 8 nM
20 | COCCOc1cc2c(cc1OC)-c1cc(=O)c(C(=O)O)cn1C(C(C)C)C2 (single isomer, unassigned; (+)) [Example 129, (+)-6-isopropyl-10-methoxy-9-(2-methoxyethoxy)-2-oxo-6,7-dihydrobenzo[a]quinolizine-3-carboxylic acid] | – | 12 nM
21 | COCCCOc1cc2c(cc1OC)-c1cc(=O)c(C(=O)O)cn1C(C(C)(C)C)C2 (single isomer, unassigned; (+)) [Example 132, (+)-6-tert-butyl-10-methoxy-9-(3-methoxypropoxy)-2-oxo-6,7-dihydrobenzo[a]quinolizine-3-carboxylic acid] | – | 1 nM
22 | COCCOc1cc2c(cc1OC)-c1cc(=O)c(C(=O)O)cn1C(C1(C)CC1)C2 (single isomer, unassigned; (+)) [Example 135, (+)-10-methoxy-9-(2-methoxyethoxy)-6-(1-methylcyclopropyl)-2-oxo-6,7-dihydrobenzo[a]quinolizine-3-carboxylic acid] | – | 4 nM
23 | COCCCOc1cc2c(c(Cl)c1F)-c1cc(=O)c(C(=O)O)cn1C(C(C)C)C2 (single isomer, unassigned; (+)) [Example 138, (+)-11-chloro-10-fluoro-6-isopropyl-9-(3-methoxypropoxy)-2-oxo-6,7-dihydrobenzo[a]quinolizine-3-carboxylic acid] | – | 9 nM
24 | COc1cc2c(cc1OCC(F)F)CC(C(C)C)n1cc(C(=O)O)c(=O)cc1-2 (single isomer, unassigned; (+)) [Example 142, (+)-9-(2,2-difluoroethoxy)-6-isopropyl-10-methoxy-2-oxo-6,7-dihydrobenzo[a]quinolizine-3-carboxylic acid] | – | 4 nM
25 | COc1cc2c(cc1OCC(C)(C)CO)CC(C(C)C)n1cc(C(=O)O)c(=O)cc1-2 (single isomer, unassigned; (+)) [Example 145, (+)-9-(3-hydroxy-2,2-dimethyl-propoxy)-6-isopropyl-10-methoxy-2-oxo-6,7-dihydrobenzo[a]quinolizine-3-carboxylic acid] | – | 6 nM
26 | COc1cc2c(cc1OCC(C)(C)CO)CC(C(C)(C)C)n1cc(C(=O)O)c(=O)cc1-2 (single isomer, unassigned; (+)) [Example 150, (+)-6-tert-butyl-9-(3-hydroxy-2,2-dimethyl-propoxy)-10-methoxy-2-oxo-6,7-dihydrobenzo[a]quinolizine-3-carboxylic acid] | – | 2 nM
27 | COc1cc2c(cc1OCCCCCO)CC(C(C)(C)C)n1cc(C(=O)O)c(=O)cc1-2 (single isomer, unassigned; (+)) [Example 153, (+)-6-tert-butyl-9-(5-hydroxypentoxy)-10-methoxy-2-oxo-6,7-dihydrobenzo[a]quinolizine-3-carboxylic acid] | – | 1 nM
